The source of these data is PMC11481913, “Rational design of a flavoenzyme for aerobic nicotine catabolism” (mBio, 2024).

This assay addresses T1, Pnao (Pseudomonas putida, UniProt F8G0P1).
T1 construct: dimer
Description: FAD reduction at […] nm (stopped-flow); FAD-binding ratio by HPLC. To be noted: FAD co-purified with the enzyme.

T1 sequence (F8G0P1 whole entry): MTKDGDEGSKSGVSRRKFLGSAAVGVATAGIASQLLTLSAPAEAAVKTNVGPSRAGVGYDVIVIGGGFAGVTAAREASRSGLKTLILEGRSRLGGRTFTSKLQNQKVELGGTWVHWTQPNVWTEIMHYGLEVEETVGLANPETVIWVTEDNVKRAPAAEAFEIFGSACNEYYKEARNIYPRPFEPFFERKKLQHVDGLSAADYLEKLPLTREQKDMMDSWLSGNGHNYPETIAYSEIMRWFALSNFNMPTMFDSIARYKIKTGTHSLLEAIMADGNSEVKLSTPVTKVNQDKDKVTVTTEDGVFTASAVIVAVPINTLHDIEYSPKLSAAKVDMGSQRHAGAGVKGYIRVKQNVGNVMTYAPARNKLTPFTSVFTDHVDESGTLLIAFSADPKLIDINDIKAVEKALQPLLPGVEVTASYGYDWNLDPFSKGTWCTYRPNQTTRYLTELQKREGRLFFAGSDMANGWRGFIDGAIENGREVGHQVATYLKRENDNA

Regarding `Cc1cc2nc3c(=O)[nH]c(=O)nc-3n(C[C@H](O)[C@H](O)[C@H](O)COP(=O)(O)OP(=O)(O)OC[C@H]3O[C@@H](n4cnc5c(N)ncnc54)[C@H](O)[C@@H]3O)c2cc1C` [FAD, flavin adenine dinucleotide], the “FAD reduction at 450 nm (stopped-flow); FAD-binding ratio by HPLC” value was “the enzyme-bound FAD is transformed from the oxidized to the hydroquinone”.
